This note sets out measurements from patent US9630929B2, “Benzenesulfonamide compounds and their use as therapeutic agents” (XENON PHARMACEUTICALS INC., priority 2011, dated 2017).

Common to all, as to format: cell-based
In data set [1] the target is T1, NaV1.7 (Homo sapiens (Human), UniProt Q15858). As to the kind of experiment: NaV flux assay, inhibition of NaV1.7. The note with it: NaV flux data, included when EP data is not available.
Another data set has as its target NaV1.5 (Homo sapiens (Human), UniProt Q14524). In words: Patch voltage clamp electrophysiology (EP), affinity for the inactivated state of Nav1.5. Here is the method:
Patch voltage clamp electrophysiology allows for the direct measurement and quantification of block of voltage-gated sodium channels (Nav's), and allows the determination of the time- and voltage-dependence of block which has been interpreted as differential binding to the resting, open, and inactivated states of the sodium channel (Hille, B., Journal of General Physiology (1977), 69: 497-515).
(§1) The following patch voltage clamp electrophysiology studies were performed on representative compounds of the invention using human embryonic kidney cells (HEK), permanently transfected with an expression vector containing the full-length cDNA coding for the desired human sodium channel α-subunit, grown in culture media containing 10% FBS, 1% PSG, and 0.5 mg/mL G418 at 37° C. with 5% CO2. […] Nav1.7 and Nav1.5 cDNAs (NM_002977 and AC137587; SCN5A, respectively) were stably expressed in HEK-293 cells. The β1 subunit was coexpressed only in the Nav1.7 cell line.
(§2) Sodium currents were measured using the patch clamp technique in the whole-cell configuration using either a PatchXpress automated voltage clamp or manually using an Axopatch 200B (Axon Instruments) or Model 2400 (A-M systems) amplifier. […] The pipette was filled with a solution comprised of: 5 mM NaCl, 10 mM CsCl, 120 mM CsF, 0.1 mM CaCl2, 2 mM MgCl2, 10 mM HEPES, 10 mM EGTA; and adjusted to pH 7.2 with CsOH. The external solution had the following composition: 140 mM NaCl, 5 mM KCl, 2 mM CaCl2, 1 mM MgCl2, 10 mM HEPES; and adjusted to pH 7.4 with NaOH. In some studies, the external sodium was reduced by equimolar replacement with choline. Osmolarity in the CsF internal and NaCl external solutions was adjusted to 300 mOsm/kg and 310 mOsm/kg with glucose, respectively. All recordings were performed at ambient temperature in a bath chamber with a volume of 150 μL. Control sodium currents were measured in 0.5% DMSO. Controls and representative compounds of the invention were applied to the recording chamber through a 4-pinch or 8-pinch valve bath perfusion system manufactured by ALA Scientific Instruments.
Currents were recorded at 40 kHz sampling frequency, filtered at […], and stored using a Digidata-1322A analogue/digital interface with the pClamp software (Axon Instruments). Series resistance compensation was applied (60-80%). […] All statistics in this study are given as mean±SD.
(§3) The membrane potential was maintained at a voltage where inactivation of the channel is complete (which was −60 mV for both Nav1.7 and Nav1.5). The voltage is then stepped back to a very negative (Vhold=−150 mV) voltage for 20 ms and then a test pulse is applied to quantify the compound block. […] The percent decrease in sodium current following wash-on of compound was taken as the percent block of sodium channels.
(§4) The Example numbers provided in Table 1 and Table 2 correspond to the Examples herein: […]

Data set [2] deals with T1, NaV1.7. As to the kind of experiment: Patch voltage clamp electrophysiology (EP), affinity for the inactivated state of Nav1.7. The note with it: HEK-293 cells expressing human Nav1.7 with β1 subunit. As for the experimental part:
as §1, §2
Series resistance compensation was applied (60-80%). […] All statistics in this study are given as mean±SD.
as §3, §4

The mark [3] stands for this setting: HEK-293 cells expressing human Nav1.5, read-out: NaV1.5 IC50.
[4] abbreviates: HEK-293 cells expressing human Nav1.5, read-out: NaV1.5 IC50(μM) (class).

Where two headings read alike, the source gives them in different places.

Sequence of NaV1.5 (Q14524 whole entry): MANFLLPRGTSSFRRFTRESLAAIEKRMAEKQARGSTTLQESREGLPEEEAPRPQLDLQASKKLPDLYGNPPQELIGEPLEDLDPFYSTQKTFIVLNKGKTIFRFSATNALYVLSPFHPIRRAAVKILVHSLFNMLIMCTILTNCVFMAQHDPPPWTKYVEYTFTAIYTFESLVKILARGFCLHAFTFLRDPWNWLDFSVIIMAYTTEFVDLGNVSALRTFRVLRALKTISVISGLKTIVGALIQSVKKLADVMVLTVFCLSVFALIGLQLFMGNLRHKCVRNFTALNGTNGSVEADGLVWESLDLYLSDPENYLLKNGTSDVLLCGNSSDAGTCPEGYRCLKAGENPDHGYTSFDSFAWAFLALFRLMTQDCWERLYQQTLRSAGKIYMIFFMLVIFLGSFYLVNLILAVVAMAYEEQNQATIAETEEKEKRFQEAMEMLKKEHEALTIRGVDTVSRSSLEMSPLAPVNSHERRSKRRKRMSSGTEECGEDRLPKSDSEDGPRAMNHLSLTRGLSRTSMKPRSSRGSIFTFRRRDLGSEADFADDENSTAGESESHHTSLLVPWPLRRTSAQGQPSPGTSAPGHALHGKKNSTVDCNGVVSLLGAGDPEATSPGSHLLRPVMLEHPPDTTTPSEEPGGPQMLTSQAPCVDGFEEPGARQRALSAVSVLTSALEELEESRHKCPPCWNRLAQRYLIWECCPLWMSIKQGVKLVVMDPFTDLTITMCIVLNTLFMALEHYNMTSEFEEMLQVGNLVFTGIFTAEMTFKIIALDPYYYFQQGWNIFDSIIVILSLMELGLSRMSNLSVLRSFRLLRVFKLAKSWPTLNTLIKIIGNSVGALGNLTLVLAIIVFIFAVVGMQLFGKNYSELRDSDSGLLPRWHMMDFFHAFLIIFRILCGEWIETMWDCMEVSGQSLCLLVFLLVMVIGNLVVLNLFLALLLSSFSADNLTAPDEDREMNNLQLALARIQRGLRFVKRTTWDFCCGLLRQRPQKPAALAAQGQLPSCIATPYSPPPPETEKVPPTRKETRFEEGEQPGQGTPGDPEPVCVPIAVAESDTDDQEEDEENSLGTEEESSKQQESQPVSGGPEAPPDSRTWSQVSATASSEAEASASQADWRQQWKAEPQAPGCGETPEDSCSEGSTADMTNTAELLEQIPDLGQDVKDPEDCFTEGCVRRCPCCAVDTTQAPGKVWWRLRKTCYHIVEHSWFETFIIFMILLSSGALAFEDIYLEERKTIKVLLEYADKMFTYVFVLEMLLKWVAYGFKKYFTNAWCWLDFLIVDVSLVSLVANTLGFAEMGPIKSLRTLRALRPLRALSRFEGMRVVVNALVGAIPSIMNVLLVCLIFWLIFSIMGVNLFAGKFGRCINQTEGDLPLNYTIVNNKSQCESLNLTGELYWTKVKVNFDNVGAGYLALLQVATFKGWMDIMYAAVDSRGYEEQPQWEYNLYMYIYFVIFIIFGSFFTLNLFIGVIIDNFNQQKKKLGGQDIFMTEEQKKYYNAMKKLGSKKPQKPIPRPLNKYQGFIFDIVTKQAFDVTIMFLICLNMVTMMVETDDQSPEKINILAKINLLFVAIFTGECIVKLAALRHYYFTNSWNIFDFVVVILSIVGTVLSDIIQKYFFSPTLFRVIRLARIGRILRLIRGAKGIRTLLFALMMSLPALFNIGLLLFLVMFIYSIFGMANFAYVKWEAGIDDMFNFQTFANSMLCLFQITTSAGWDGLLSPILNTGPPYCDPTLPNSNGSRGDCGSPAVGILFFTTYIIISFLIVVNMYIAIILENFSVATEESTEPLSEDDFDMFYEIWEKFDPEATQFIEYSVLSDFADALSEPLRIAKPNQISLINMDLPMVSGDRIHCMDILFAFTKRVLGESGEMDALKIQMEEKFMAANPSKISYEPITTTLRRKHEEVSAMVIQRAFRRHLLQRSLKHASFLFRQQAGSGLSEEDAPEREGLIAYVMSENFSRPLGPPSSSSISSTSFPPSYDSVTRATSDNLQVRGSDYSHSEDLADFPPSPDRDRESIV
T1 sequence (Q15858 other isoform, or with tags, fused parts or gaps): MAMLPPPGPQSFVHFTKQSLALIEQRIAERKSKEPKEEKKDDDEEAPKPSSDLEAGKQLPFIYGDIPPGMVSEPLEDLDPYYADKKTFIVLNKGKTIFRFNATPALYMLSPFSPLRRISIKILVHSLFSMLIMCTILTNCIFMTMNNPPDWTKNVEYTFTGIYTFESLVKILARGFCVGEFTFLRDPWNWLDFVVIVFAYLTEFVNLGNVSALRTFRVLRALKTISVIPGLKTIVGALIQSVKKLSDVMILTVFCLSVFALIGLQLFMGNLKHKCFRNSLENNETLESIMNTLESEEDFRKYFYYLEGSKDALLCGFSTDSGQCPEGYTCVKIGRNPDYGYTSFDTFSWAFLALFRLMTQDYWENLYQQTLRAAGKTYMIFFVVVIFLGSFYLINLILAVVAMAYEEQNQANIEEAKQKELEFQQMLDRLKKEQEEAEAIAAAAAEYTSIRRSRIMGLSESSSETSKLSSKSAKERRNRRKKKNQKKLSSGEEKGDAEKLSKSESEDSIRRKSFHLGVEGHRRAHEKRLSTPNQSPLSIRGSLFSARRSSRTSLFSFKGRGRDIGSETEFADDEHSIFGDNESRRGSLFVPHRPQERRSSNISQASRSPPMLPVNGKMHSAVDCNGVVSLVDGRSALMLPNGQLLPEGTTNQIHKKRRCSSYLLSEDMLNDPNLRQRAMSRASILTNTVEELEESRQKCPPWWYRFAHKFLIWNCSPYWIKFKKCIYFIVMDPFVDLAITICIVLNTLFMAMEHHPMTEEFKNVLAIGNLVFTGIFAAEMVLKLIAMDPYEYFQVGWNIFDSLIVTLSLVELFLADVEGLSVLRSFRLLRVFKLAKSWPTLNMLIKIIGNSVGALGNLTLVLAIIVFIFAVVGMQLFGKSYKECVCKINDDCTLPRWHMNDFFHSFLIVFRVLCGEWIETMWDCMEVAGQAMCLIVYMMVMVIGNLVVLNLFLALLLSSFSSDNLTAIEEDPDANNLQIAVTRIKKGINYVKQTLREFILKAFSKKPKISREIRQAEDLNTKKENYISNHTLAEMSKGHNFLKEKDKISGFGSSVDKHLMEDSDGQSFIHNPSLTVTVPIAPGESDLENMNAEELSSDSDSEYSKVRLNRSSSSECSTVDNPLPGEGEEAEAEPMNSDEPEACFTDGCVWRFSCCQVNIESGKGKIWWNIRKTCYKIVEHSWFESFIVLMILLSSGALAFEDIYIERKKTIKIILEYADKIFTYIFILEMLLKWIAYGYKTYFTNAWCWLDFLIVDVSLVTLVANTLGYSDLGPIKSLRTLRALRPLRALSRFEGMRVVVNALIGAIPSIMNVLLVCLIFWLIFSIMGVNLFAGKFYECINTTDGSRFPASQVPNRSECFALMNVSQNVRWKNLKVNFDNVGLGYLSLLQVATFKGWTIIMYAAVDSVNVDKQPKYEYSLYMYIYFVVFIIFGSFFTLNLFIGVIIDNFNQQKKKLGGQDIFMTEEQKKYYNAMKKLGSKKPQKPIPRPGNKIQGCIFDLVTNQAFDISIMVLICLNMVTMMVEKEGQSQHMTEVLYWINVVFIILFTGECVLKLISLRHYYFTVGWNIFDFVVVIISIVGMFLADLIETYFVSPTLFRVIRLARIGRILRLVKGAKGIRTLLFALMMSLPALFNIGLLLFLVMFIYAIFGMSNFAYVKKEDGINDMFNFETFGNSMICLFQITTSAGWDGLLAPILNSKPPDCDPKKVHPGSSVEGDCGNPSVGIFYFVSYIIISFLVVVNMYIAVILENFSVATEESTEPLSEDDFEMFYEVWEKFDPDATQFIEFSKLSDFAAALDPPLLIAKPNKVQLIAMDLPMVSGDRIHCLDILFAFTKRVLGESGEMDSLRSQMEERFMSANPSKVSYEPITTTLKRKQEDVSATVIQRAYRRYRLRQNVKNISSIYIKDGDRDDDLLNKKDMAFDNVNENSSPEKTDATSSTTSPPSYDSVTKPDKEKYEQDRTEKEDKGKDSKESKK
T1 sequence (Q07699 19-218 partner): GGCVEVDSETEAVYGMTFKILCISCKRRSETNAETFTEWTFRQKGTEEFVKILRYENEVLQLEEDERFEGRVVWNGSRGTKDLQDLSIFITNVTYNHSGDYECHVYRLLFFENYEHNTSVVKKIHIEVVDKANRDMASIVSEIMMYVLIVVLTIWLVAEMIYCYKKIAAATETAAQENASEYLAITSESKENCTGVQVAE

For the compound `O=S(=O)(Nc1ncns1)c1cc(F)c(OC[C@@H]2CNCC[C@H]2c2ccc(Cl)cc2)c(F)c1` (relative stereo) [Example 81, 4-((trans-4-(4-chlorophenyl)piperidin-3-yl)methoxy)-3,5-difluoro-N-(1,2,4-thiadiazol-5-yl)benzenesulfonamide], at NaV1.7 [1], the IC50 (usually the concentration needed to halve the response being measured) is 2320 nM.
Turning to `N#Cc1cc(S(=O)(=O)NCC(F)(F)F)ccc1OC[C@@H]1CNCC[C@H]1c1ccc(Cl)cc1` (relative stereo) [Example 93, 4-((trans-4-(4-chlorophenyl)piperidin-3-yl)methoxy)-3-cyano-N-(2,2,2-trifluoroethyl)benzenesulfonamide], at NaV1.7 [1], the IC50 was greater than 10000 nM.
In the case of `O=C1C[C@@H](c2ccc(F)cc2)[C@H](COc2cc(F)c(S(=O)(=O)Nc3ncns3)cc2F)CN1` (relative stereo) [Example 87, 2,5-difluoro-4-((trans-4-(4-fluorophenyl)-6-oxopiperidin-3-yl)methoxy)-N-(1,2,4-thiadiazol-5-yl)benzenesulfonamide], the half-maximal inhibitory concentration (IC50) on NaV1.5 (setting [3]) was greater than 10 µM; at NaV1.5 (setting [4]), greater than 10 µM; at NaV1.7 [2] (read-out: NaV1.7 (IC50 class)) it was less than 100 nM; at NaV1.7 [2] (read-out: NaV1.7 IC50) it was 82 nM.
Consider `O=S(=O)(Nc1ncc(Cl)s1)c1cc(F)c(OC[C@@H]2CNCC[C@H]2c2ccc(F)c(F)c2)cc1F` (relative stereo) [Example 61, N-(5-chlorothiazol-2-yl)-4-((trans-4-(3,4-difluorophenyl)piperidin-3-yl)methoxy)-2,5-difluorobenzenesulfonamide], for which the IC50 on NaV1.5 (setting [3]) is greater than 10 µM; at NaV1.5 (setting [4]), greater than 10 µM; at NaV1.7 [2] (read-out: NaV1.7 (IC50 class)), less than 100 nM; on NaV1.7 [2] (read-out: NaV1.7 IC50) it was 21.6 nM.
On to `O=S(=O)(Nc1ncns1)c1cc(F)c(OCC2(F)CNCCC2c2ccc(F)cc2)cc1F` (stereo not drawn) [Example 47, 2,5-difluoro-4-((3-fluoro-4-(4-fluorophenyl)piperidin-3-yl)methoxy)-N-(1,2,4-thiadiazol-5-yl)benzenesulfonamide], for which the half-maximal inhibitory concentration (IC50) was greater than 10 µM on NaV1.5 (setting [3]), greater than 10 µM at NaV1.5 (setting [4]), less than 100 nM at NaV1.7 [2] (read-out: NaV1.7 (IC50 class)) and 50.7 nM at NaV1.7 [2] (read-out: NaV1.7 IC50).
At NaV1.7 [1], `CC(=O)NS(=O)(=O)c1cc(F)c(OC[C@@H]2CNCC[C@H]2c2ccc(Cl)cc2)cc1F` (relative stereo) [Example 102, N-((4-((trans-4-(4-chlorophenyl)piperidin-3-yl)methoxy)-2,5-difluorophenyl)sulfonyl)acetamide] returned an IC50 greater than 10000 nM.
`O=S(=O)(Nc1ncns1)c1ccc(OC[C@@H]2CNCC[C@H]2c2ccc(Cl)cc2)c(F)c1` (relative stereo) [Example 59, 4-((trans-4-(4-chlorophenyl)piperidin-3-yl)methoxy)-3-fluoro-N-(1,2,4-thiadiazol-5-yl)benzenesulfonamide]: the IC50 was greater than 10 µM at NaV1.5 (setting [3]), greater than 10 µM at NaV1.5 (setting [4]), less than 100 nM on NaV1.7 [2] (read-out: NaV1.7 (IC50 class)) and 8.6 nM at NaV1.7 [2] (read-out: NaV1.7 IC50).
On to `CN1CC[C@@H](c2ccc(Cl)cc2)[C@H](COc2cc(F)c(S(=O)(=O)Nc3ncns3)cc2F)C1` (relative stereo) [Example 70, 4-((trans-4-(4-chlorophenyl)-1-methylpiperidin-3-yl)methoxy)-2,5-difluoro-N-(1,2,4-thiadiazol-5-yl)benzenesulfonamide], for which the 50% inhibitory concentration (IC50) was greater than 10 µM at NaV1.5 (setting [3]), greater than 10 µM at NaV1.5 (setting [4]), less than 100 nM on NaV1.7 [2] (read-out: NaV1.7 (IC50 class)) and 12 nM at NaV1.7 [2] (read-out: NaV1.7 IC50).
For the compound `CC(C)NC(=O)NS(=O)(=O)c1cc(F)c(OC[C@@H]2CNCC[C@H]2c2ccc(Cl)cc2)cc1F` (relative stereo) [Example 105, 4-((trans-4-(4-chlorophenyl)piperidin-3-yl)methoxy)-2,5-difluoro-N-(isopropylcarbamoyl)benzenesulfonamide], at NaV1.7 [1], the IC50 is greater than 10000 nM.
Compound `N#Cc1cc(S(=O)(=O)NC2(C#N)CC2)ccc1OC[C@@H]1CNCC[C@H]1c1ccc(Cl)cc1` (relative stereo) [Example 91, 4-((trans-4-(4-chlorophenyl)piperidin-3-yl)methoxy)-3-cyano-N-(1-cyanocyclopropyl)benzenesulfonamide] came in with an IC50 against NaV1.7 [1] greater than 10000 nM.
On the same count and under the same terms, under `NS(=O)(=O)c1cc(F)c(OC[C@@H]2CNCC[C@H]2c2ccc(Cl)cc2)cc1F` (relative stereo) [Example 95, 4-((trans-4-(4-chlorophenyl)piperidin-3-yl)methoxy)-2,5-difluorobenzenesulfonamide] stands greater than 10000 nM.
With `O=S(=O)(Nc1ncns1)c1cc(F)c(OC[C@@H]2CNCC[C@H]2c2ccc(F)cc2)cc1F` (relative stereo) [Example 45, 2,5-difluoro-4-((trans-4-(4-fluorophenyl)piperidin-3-yl)methoxy)-N-(1,2,4-thiadiazol-5-yl)benzenesulfonamide], the IC50 on NaV1.5 (setting [3]) is greater than 10 µM; at NaV1.5 (setting [4]) it was greater than 10 µM; on NaV1.7 [2] (read-out: NaV1.7 (IC50 class)), less than 100 nM; on NaV1.7 [2] (read-out: NaV1.7 IC50), 6.8 nM.
On to `N#Cc1cc(S(=O)(=O)Nc2ncns2)ccc1OC[C@@H]1CNCC[C@H]1c1ccc(Cl)cc1` (relative stereo) [Example 58, 4-((trans-4-(4-chlorophenyl)piperidin-3-yl)methoxy)-3-cyano-N-(1,2,4-thiadiazol-5-yl)benzenesulfonamide], for which the IC50 on NaV1.5 (setting [3]) was greater than 10 µM; at NaV1.5 (setting [4]) it was greater than 10 µM; at NaV1.7 [2] (read-out: NaV1.7 (IC50 class)), less than 100 nM; on NaV1.7 [2] (read-out: NaV1.7 IC50), 3.3 nM.
As for `NC(=O)N1CC[C@@H](c2ccc(F)c(F)c2)[C@H](COc2cc(F)c(S(=O)(=O)Nc3ncc(Cl)s3)cc2F)C1` (relative stereo) [Example 89, trans-3-((4-(N-(5-chlorothiazol-2-yl)sulfamoyl)-2,5-difluorophenoxy)methyl)-4-(3,4-difluorophenyl)piperidine-1-carboxamide], the IC50 on NaV1.5 (setting [3]) is greater than 10 µM; at NaV1.5 (setting [4]), greater than 10 µM; at NaV1.7 [2] (read-out: NaV1.7 (IC50 class)), 100 to 1000 nM; at NaV1.7 [2] (read-out: NaV1.7 IC50), 436 nM.
Take `O=C(NS(=O)(=O)c1cc(F)c(OC[C@@H]2CNCC[C@H]2c2ccc(Cl)cc2)cc1F)c1ccccn1` (relative stereo) [Example 99, N-((4-((trans-4-(4-chlorophenyl)piperidin-3-yl)methoxy)-2,5-difluorophenyl)sulfonyl)picolinamide]: the IC50 at NaV1.7 [1] is greater than 10000 nM.
`CN1CC[C@@H](c2ccc(Cl)cc2)[C@H](COc2cc(F)c(S(=O)(=O)Nc3ncns3)cc2F)C1` [Example 86, 4-(((3S,4R)-4-(4-chlorophenyl)-1-methylpiperidin-3-yl)methoxy)-2,5-difluoro-N-(1,2,4-thiadiazol-5-yl)benzenesulfonamide]: the IC50 is greater than 10 µM at NaV1.5 (setting [3]), greater than 10 µM on NaV1.5 (setting [4]), 100 to 1000 nM at NaV1.7 [2] (read-out: NaV1.7 (IC50 class)) and 331 nM at NaV1.7 [2] (read-out: NaV1.7 IC50).
For the compound `O=C(NS(=O)(=O)c1cc(F)c(OC[C@@H]2CNCC[C@H]2c2ccc(Cl)cc2)cc1F)c1ccccc1` (relative stereo) [Example 104, N-((4-((trans-4-(4-chlorophenyl)piperidin-3-yl)methoxy)-2,5-difluorophenyl)sulfonyl)benzamide], on NaV1.7 [1], the IC50 was greater than 10000 nM.
The same measure, in the same setting: as for `O=C(NS(=O)(=O)c1cc(F)c(OC[C@@H]2CNCC[C@H]2c2ccc(Cl)cc2)cc1F)c1cccnc1` (relative stereo) [Example 103, N-((4-((trans-4-(4-chlorophenyl)piperidin-3-yl)methoxy)-2,5-difluorophenyl)sulfonyl)nicotinamide], the figure is greater than 10000 nM.
